Data on 13 compounds can be found in patent US5908841A, “5,11-dihydro-6H-dipyrido[3,2-b:2',3'-e]azepine-6-ones and their use in the prevention of treatment of HIV infection” (priority 1998, dated 1999).

The experiment concerns the target T1, HIV-1 reverse transcriptase, wild type (WT) (Human immunodeficiency virus type 1 group M subtype B, UniProt P03367).
T1 construct: Reverse transcriptase enzyme from the LAV strain of Human Immunodeficiency Virus (HIV-1); made in house; host or cells: Escherichia coli JM109 (clone pBRTprtl+ in vector pIBI21)
Briefly: Reverse Transcriptase Assay, wild type (WT) enzyme (RNA-dependent DNA polymerase activity; poly r(C)/oligo d(G), 3H-dGTP). The experiment is classed as biochemical, HIV-1 (LAV strain). The conditions noted are these: wild type (WT) RT. An excerpt:
Utilizing the Reverse Transcriptase (RT) Assay described below, compounds can be tested for their ability to inhibit the RNA-dependent DNA polymerase activity of HIV-1 RT. Certain specific compounds described in the Examples which appear below, were so tested.
Among the enzymes for which Human Immunodeficiency Virus (HIV-1) encodes is a reverse transcriptase (1), so-named because it transcribes a DNA copy from an RNA template. This activity can be quantitatively measured in a cell-free enzyme assay, which has been previously described (2), and is based upon the observation that reverse transcriptase is able to use a synthetic template [poly r(C) primed with oligo d(G)] to transcribe a radio-labelled, acid-precipitable DNA strand utilizing ^3 H-dGTP as a substrate. The assay described below utilizes the wild type (WT) enzyme, which is the predominant form of the enzyme observed in patients infected with HIV-1. Utilization of mutant RT enzymes (Y181C and Y181L, prepared by site-directed mutagenesis in which the tyrosine residue at codon 181 has been replaced by a cysteine or a leucine residue, respectively) and analogous assay conditions allows compounds to be evaluated for their effectiveness at inhibiting these mutant enzymes.
a) Preparation of the wild type enzyme Reverse transcriptase enzyme from the LAV strain of Human Immunodeficiency Virus (HIV-1) (1) was isolated from the bacterial strain JM109 (3) expressing the DNA clone pBRTprtl+ (2) which is under the control of the lac promotor in the expression vector pIBI21 (4). An overnight culture grown in 2XYT medium (37° C., 225 rpm) (5) supplemented with 100 μg/mL ampicillin for positive selection is inoculated at a 1:40 dilution into M9 medium supplemented with 10 μg/mL thiamine, 0.5% casamino acids, and 50 μg/mL ampicillin (5). The culture is incubated (37° C., 225 rpm) until it reaches an OD540 of 0.3-0.4. At that time the repressor inhibitor IPTG (isopropyl β-D-thiogalactopyranoside) is added to 0.5 mM, and the mixture is incubated for 2 additional hours. Bacteria are pelleted, resuspended in a 50 mM Tris, 0.6 mM EDTA, 0.375M NaCl buffer and digested by the addition of lysozyme (1 mg/mL) for 30 minutes on ice. The cells are lysed by the addition of 0.2% NP-40 and brought to 1M NaCl.
After removal of the insoluble debris by centrifugation, the protein is precipitated by the addition of 3 volumes of saturated aqueous ammonium sulfate. The enzyme is pelleted, resuspended in RT buffer (50 mM Tris pH 7.5, 1 mM EDTA, 5 mM DTT, 0.1% NP-40, 0.1M NaCl, and 50% glycerol), and stored at -70° C. for further use.
b) Composition of 2× concentrated stock reaction mixture
[poly r(C)/oligo d(G)] (5:1)
The 2× concentrated stock reaction mixture is aliquoted and stored at -20° C. The mixture is stable and thawed for use in each assay. This enzyme assay has been adapted to a 96 well microtiter plate system, and has been previously described (6). Tris buffer (50 mM, pH 7.4), vehicle (solvent diluted to match the compound dilution), or compounds in vehicle are dispensed into 96-well microtiter plates (10 μL/well; 3 wells/compound). The HIV-1 RT enzyme is thawed, diluted in 50 mM Tris pH 7.4 so that fifteen μL of diluted enzyme contain 0.001 Unit (one unit is that amount of enzyme to transform 1 micromole of substrate per minute at 25° C.), and fifteen μL are dispensed per well. Twenty μL of 0.12-0.5M EDTA are added to the first three wells of the microtiter plate. EDTA chelates the Mg^++ present and prevents reverse transcription. This group serves as background polymerization which is subtracted from all other groups. Twenty-five μl of the 2× reaction mixture are added to all wells and the assay is allowed to incubate at room temperature for 60 minutes. The assay is terminated by precipitating the DNA in each well with 50 μL of 10% trichloracetic acid (TCA) (10% w/v) in sodium pyrophosphate (1% w/v). […]
Consider `CCCC1c2ncccc2C(=O)N(C)c2cccnc21` (stereo not shown) [Example 3, 5,11-Dihydro-11-propyl-5-methyldipyrido[3,2-b:2',3'-e]azepine-6-one], for which the inhibition at 1 µM was 64%. Then `COc1ccc2c(n1)C(SC)c1ncccc1C(=O)N2C` (stereo not shown) [Example 11, 5,11-Dihydro-11-methylthio-2-methoxy-5-methyl-dipyrido[3,2-b:2',3'-e]azepine-6-one], with 80%; and `CCC1c2ncccc2N(C)C(=O)c2ccc[n+]([O-])c21` (stereo not shown) [Example 1, 5,11-Dihydro-11-ethyl-5-methyl-10-oxo-6H-dipyrido[3,2-b:2',3'-e]azepin-6-on], with 68%. Then `COc1ccc2c(n1)C(C)(SC)c1ncccc1C(=O)N2C` (stereo not shown) [Example 12, 5,11-Dihydro-11-methyl-11-methylthio-2-methoxy-5-methyl-dipyrido[3,2-b:2',3'-e]azepine-6-one], with 41%; and `CCC1c2ncccc2C(=O)N(C)c2cccnc21` (stereo not shown) [Example 2, 5,11-Dihydro-11-ethyl-5-methyldipyrido[3,2-b:2',3'-e]azepine-6-one], with 62%. `CCC1(C)c2ncccc2C(=O)N(C)c2cccnc21` (stereo not shown) [Example 4, 5,11-Dihydro-11-ethyl-11-methyl-5-methyldipyrido[3,2-b:2',3'-e]azepine-6-one] showed an inhibition at 1 µM of 68%. The same measure for `CCC1c2nc(OC)ccc2N(C)C(=O)c2ccc[n+]([O-])c21` (stereo not shown) [Example 7, 5,11-Dihydro-11-ethyl-2-methoxy-5-methyl-10-oxodipyrido[3,2-b:2',3'-e]azepine-6-one]: 75%. Then `CCC1c2ncccc2C(=O)N(C)c2ccc(-c3cn[nH]c3)nc21` (stereo not shown) [Example 13, 5,11-Dihydro-11-ethyl-2-(4-pyrazolyl)-5-methyl-dipyrido[3,2-b:2',3'-e]azepine-6-one], with 80%; and `CCC1c2ncccc2C(=O)N(C)c2ccc(OC)nc21` (stereo not shown) [Example 8, 5,11-Dihydro-11-ethyl-2-methoxy-5-methyl-dipyrido[3,2-b:2',3'-e]azepine-6-one], with 84%; and `CCC1(CC)c2ncccc2C(=O)N(C)c2cccnc21` [Example 5, 5,11-Dihydro-11-diethyl-5-methyldipyrido[3,2-b:2',3'-e]azepine-6-one], with 62%. Then `COc1ccc2c(n1)C(SC)c1c(ccc[n+]1[O-])C(=O)N2C` (stereo not shown) [Example 10, 5,11-Dihydro-11-methylthio-2-methoxy-5-methyl-10-oxodipyrido[3,2-b:2',3'-e]azepine-6-one], with 91%.

Take `CCC1(CC)c2ncccc2C(=O)N(C)c2ccc(OC)nc21` [Example 9, 5,11-Dihydro-11-diethyl-2-methoxy-5-methyl-dipyrido[3,2-b:2',3'-e]azepine-6-one]: testing at 1 µM gave an inhibition of 66%.

In turn, `CN1C(=O)c2cccnc2C2(CCCC2)c2ncccc21` [Example 6, 5,11-Dihydro-11-spirocyclopentyl-5-methyldipyrido[3,2-b:2',3'-e]azepine-6-one] returned an inhibition at 1 µM of 62%.
